US20240207258A1, “HETEROCYCLIC PDK1 INHIBITORS FOR USE TO TREAT CANCER” (Viracta Therapeutics, Inc., priority 2015, published 2024)

Assays:
SU-DHL-4 = assay: MTS cell proliferation assay, SU-DHL-4; format: cell-based; details: Homo sapiens; SU-DHL-4, 72 hr
Procedure: (§1) Cell proliferation was measured using the CellTiter 96 Aqueous Non-Radioactive Cell Proliferation Assay (Promega). The CellTiter 96® AQueous Assay is composed of solutions of a tetrazolium compound [3-(4,5-dimethylthiazol-2-yl)-5-(3-carboxymethoxyphenyl)-2-(4-sulfophenyl)-2H-tetrazolium, inner salt; MTS] and an electron coupling reagent (phenazine methosulfate) PMS. MTS is bioreduced by cells into a formazan product that is soluble in tissue culture medium. The absorbance of the formazan product at 490 nm can be measured directly from assay plates without additional processing. The quantity of formazan product as measured by the amount of 490 nm absorbance is directly proportional to the number of living cells in culture. Cells were seeded into 96-well or 384-well clear plates in a volume of 200 μL (96-well) or 50 μL (384-well) at optimized densities ranging from 1,000 to 40,000 cells per well for 96-well plates or 1,200 to 25,000 cells per well for 384-well plates depending on cell-line. After 4-6 hr recovery, serially diluted compounds in DMSO were added to the cells using (0.1% v/v final DMSO concentration). Cells were then grown at 37° C. in a humidified incubator with 5% CO2 for 72 hr. A 20:1 [3-(4,5-dimethylthiazol-2-yl)-5-(3-carboxymethoxyphenyl)-2-(4-sulfophenyl)-2H-tetrazolium](MTS):phenazine methosulfate (PMS) solution in DPBS was made immediately before use, added to each well, and cells were incubated for 1.5 hr at 37° C. The absorbance at 490 nm was then measured using a platereader. Absorbance values were normalized as percent of control (cells incubated in the presence of 0.1% v/v DMSO). Sigmoidal dose-response curves were plotted using log(inhibitor) vs. response—Variable slope (four parameters) model with a top value constrained to 100% (GraphPad Prism version 6.00 for Windows, GraphPad Software, La Jolla California USA). […] Curves for compounds that reached a plateau were matched exactly to the measurement points. […]

U-266 = assay: MTS cell proliferation assay, U-266; format: cell-based; details: Homo sapiens; U-266, 72 hr
Procedure: as §1

Full-length PDK1 = biological target: T1, Full-length PDK1 (Homo sapiens, UniProt O15530); assay: PDK1 kinase activity assay (FRET); format: biochemical; details: for inhibition of PDK1 kinase activity: phosphorylated and un-phosphorylated PDK1, FIGS. 2A and 2B
T1 construct: Full-length PDK1 protein (SignalChem) was dephosphorylated; purchased SignalChem
T1 sequence (O15530 1-556): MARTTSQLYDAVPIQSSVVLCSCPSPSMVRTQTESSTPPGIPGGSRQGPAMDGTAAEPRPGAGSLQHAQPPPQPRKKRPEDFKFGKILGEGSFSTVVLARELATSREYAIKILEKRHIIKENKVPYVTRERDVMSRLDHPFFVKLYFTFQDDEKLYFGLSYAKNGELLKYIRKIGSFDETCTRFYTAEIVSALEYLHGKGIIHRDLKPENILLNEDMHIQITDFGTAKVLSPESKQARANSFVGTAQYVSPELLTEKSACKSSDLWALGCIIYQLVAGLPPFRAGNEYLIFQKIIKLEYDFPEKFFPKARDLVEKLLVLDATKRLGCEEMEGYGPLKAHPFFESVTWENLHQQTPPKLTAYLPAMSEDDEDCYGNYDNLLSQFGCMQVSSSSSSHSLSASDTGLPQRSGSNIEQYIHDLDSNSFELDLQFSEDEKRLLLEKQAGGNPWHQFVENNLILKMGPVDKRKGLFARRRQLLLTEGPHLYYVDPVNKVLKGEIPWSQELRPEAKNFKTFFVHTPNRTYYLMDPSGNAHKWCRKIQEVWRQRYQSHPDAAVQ
Procedure: Full-length PDK1 protein (SignalChem) was dephosphorylated using GST-k-phosphatase (produced in house), which was subsequently removed using glutathione-agarose beads (Gold Biotechnology). […] Tb-pCrosstide antibody (ThermoFisher) was then added to a final concentration of 2 nM and the reaction was incubated for an additional 30 min. Fluorescence resonance energy transfer (FRET) was measured using a Tecan Infinite F500 plate reader with λex=340 nm, λem1=485 nm, λem2=520 nm.

SU-DHL-6 = assay: MTS cell proliferation assay, SU-DHL-6; format: cell-based; details: Homo sapiens; SU-DHL-6, 72 hr
Procedure: as §1

WSU-DLCL2 = assay: MTS cell proliferation assay, WSU-DLCL2; format: cell-based; details: Homo sapiens, WSUDLCL2; WSU-DLCL2, 72 hr
Procedure: as §1

[1] = Oral pharmacokinetics in mice; format: in vivo; details: for Tmax / bioavailability: mouse, in vivo, oral; for bioavailability: read-out: oral bioavailability % F

For `C[C@H](NC(=O)c1nc(C#N)cnc1NCc1ccc(-c2cnc3[nH]nc(N)c3n2)cc1)c1ccc(F)c(F)c1` [Compound 1, 3-[4-(3-Amino-1H-pyrazolo[3,4-b]pyrazin-5-yl)-benzylamino]-6-cyano-pyrazine-2-carboxylic acid [1-(3,4-difluoro-phenyl)-ethyl]-amide], the EC50 (SU-DHL-4) was 313 nM, the EC50 (U-266) was 226 nM and the “inhibition of PDK1 kinase activity” value (Full-length PDK1) was “potent inhibitors of both phosphorylated and un-phosphorylated PDK1”. The EC50 (SU-DHL-6) was 572 nM, the EC50 (WSU-DLCL2) was 543 nM and the “half-life” value [1] was “long half-life”. For the same compound, the Tmax [1] was 4 to 8 h and the bioavailability [1] was over 40%.
With `CNc1n[nH]c2ncc(-c3ccc(CNc4ncc(C#N)nc4C(=O)N[C@@H](C)c4ccc(F)c(F)c4)cc3)cc12` [Compound 2, 6-Cyano-3-[4-(3-methylamino-1H-pyrazolo[3,4-b]pyridin-5-yl)-benzylamino]-pyrazine-2-carboxylic acid [1-(3,4-difluoro-phenyl)-ethyl]-amide] the EC50 (SU-DHL-4) was 186 nM, the EC50 (U-266) was 130 nM and the “biochemical potency compared to GSK2334470” value (Full-length PDK1) was “comparable biochemical potency”. The “inhibition of PDK1 kinase activity” value (Full-length PDK1) was “potent inhibitors of both phosphorylated and un-phosphorylated PDK1”, the EC50 (SU-DHL-6) was 476 nM and the EC50 (WSU-DLCL2) was 354 nM. For the same compound, the “half-life” value [1] was “long half-life”, the Tmax [1] was 4 to 8 h and the bioavailability [1] was over 40%.
